Peptide text beside a SMILES is read from it.
Key:
CRF1R = target: T1, CRF1R (Homo sapiens, UniProt P34998); experiment: CRF1R agonist activation (EC50 / Emax), called comparative CRF binding; type: cell-based; settings: for Emax: read-out: CRF1R Emax
T1 sequence (P34998 24-415): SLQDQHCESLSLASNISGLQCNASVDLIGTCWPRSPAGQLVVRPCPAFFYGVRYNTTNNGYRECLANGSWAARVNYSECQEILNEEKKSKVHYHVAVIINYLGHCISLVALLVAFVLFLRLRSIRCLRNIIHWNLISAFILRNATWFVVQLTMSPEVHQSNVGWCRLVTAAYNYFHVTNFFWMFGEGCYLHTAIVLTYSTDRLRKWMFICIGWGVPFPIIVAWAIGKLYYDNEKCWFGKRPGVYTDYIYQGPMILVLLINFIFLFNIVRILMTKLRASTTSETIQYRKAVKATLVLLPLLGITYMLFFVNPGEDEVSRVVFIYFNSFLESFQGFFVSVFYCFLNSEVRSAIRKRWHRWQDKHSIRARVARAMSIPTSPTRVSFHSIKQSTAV
Method in brief: (§1)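 CRFR-expressing cells + peptide vs vehicle; read-out cAMP (lysate assay) or CRE-linked reporter expression (luciferase, CAT, fluorescent protein, alkaline phosphatase, etc.). Signal compared against vehicle-treated cells.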

CRF2R = target: T2, CRF2R (Homo sapiens, UniProt Q13324); experiment: CRF2R agonist activation (EC50 / Emax), called comparative CRF binding; type: cell-based; settings: for Emax: read-out: CRF2R Emax
T2 sequence (Q13324 1-411): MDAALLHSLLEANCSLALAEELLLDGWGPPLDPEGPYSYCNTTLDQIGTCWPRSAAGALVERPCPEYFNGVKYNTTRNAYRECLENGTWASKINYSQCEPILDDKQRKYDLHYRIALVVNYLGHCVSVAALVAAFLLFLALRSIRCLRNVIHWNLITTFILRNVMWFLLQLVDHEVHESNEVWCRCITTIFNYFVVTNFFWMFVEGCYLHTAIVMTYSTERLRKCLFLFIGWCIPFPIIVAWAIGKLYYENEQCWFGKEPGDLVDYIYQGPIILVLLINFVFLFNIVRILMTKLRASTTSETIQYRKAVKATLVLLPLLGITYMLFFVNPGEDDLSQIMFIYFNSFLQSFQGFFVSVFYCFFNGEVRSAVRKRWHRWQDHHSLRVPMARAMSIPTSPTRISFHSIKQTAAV
Method in brief: as §1

Structure (SMILES)	Emax (CRF1R)	Emax (CRF2R)	EC50 (CRF1R; read-out: CRF1R EC50)	EC50 (CRF2R; read-out: CRF2R EC50)
CC[C@H](C)[C@H](NC(=O)[C@H](C)NC(=O)[C@H](CC(N)=O)NC(=O)[C@H](CCC(N)=O)NC(=O)[C@H](CCC(=O)O)NC(=O)[C@H](C)NC(=O)[C@H](CCCNC(=N)N)NC(=O)[C@H](CCC(=O)O)NC(=O)[C@H](CCCNC(=N)N)NC(=O)[C@H](CCC(N)=O)NC(=O)[C@H](CO)NC(=O)[C@H](CCC(N)=O)NC(=O)[C@@H](NC(=O)[C@H](CCCNC(=N)N)NC(=O)[C@H](C)NC(=O)[C@H](CC(C)C)NC(=O)[C@H](CCC(=O)O)NC(=O)[C@H](CC(C)C)NC(=O)[C@H](CC(C)C)NC(=O)[C@@H](NC(=O)[C@H](CCCNC(=N)N)NC(=O)[C@H](CC(C)C)NC(=O)[C@H](CC(C)C)NC(=O)[C@H](Cc1ccc(O)cc1)NC(=O)[C@H](Cc1ccccc1)NC(=O)[C@@H]1CCCN1C(=O)[C@H](CC(C)C)NC(=O)[C@H](CC(=O)O)NC(=O)[C@@H](NC(=O)[C@H](CO)NC(=O)[C@H](CC(C)C)NC(=O)[C@H](CO)NC(=O)[C@@H]1CCCN1C(=O)[C@H](CC(N)=O)NC(=O)[C@@H](N)CC(=O)O)[C@@H](C)CC)[C@@H](C)O)[C@@H](C)O)C(=O)N[C@H](C(=O)N[C@@H](Cc1ccccc1)C(=O)N[C@@H](C)C(=O)N[C@@H](CO)C(=O)N[C@H](C(N)=O)C(C)C)[C@@H](C)CC [compound 183] (H-DNPSLSIDLPFYLLRTLLELARTQSQRERAEQNAIIFASV-NH2; N-terminus assumed)	57.5%	100%		
CC[C@H](C)[C@H](NC(=O)[C@H](C)NC(=O)[C@H](CC(N)=O)NC(=O)[C@H](CCC(N)=O)NC(=O)[C@H](CCC(=O)O)NC(=O)[C@H](C)NC(=O)[C@H](CCCNC(=N)N)NC(=O)[C@H](CCC(=O)O)NC(=O)[C@H](CCCNC(=N)N)NC(=O)[C@H](CCC(N)=O)NC(=O)[C@H](CO)NC(=O)[C@H](CCC(N)=O)NC(=O)[C@@H](NC(=O)[C@H](CCCNC(=N)N)NC(=O)[C@H](C)NC(=O)[C@H](CC(C)C)NC(=O)[C@H](CCC(=O)O)NC(=O)[C@H](CC(C)C)NC(=O)[C@H](CC(C)C)NC(=O)[C@@H](NC(=O)[C@H](CCCNC(=N)N)NC(=O)[C@H](CC(C)C)NC(=O)[C@H](CC(C)C)NC(=O)[C@H](Cc1ccccc1)NC(=O)[C@H](Cc1ccccc1)NC(=O)[C@@H]1CCCN1C(=O)[C@H](CC(C)C)NC(=O)[C@H](CC(=O)O)NC(=O)[C@@H](NC(=O)[C@H](CO)NC(=O)[C@H](CC(C)C)NC(=O)[C@H](CO)NC(=O)[C@@H]1CCCN1C(=O)[C@H](CC(N)=O)NC(=O)[C@@H](N)CC(=O)O)[C@@H](C)CC)[C@@H](C)O)[C@@H](C)O)C(=O)N[C@H](C(=O)N[C@@H](Cc1ccccc1)C(=O)N[C@@H](C)C(=O)N[C@@H](CO)C(=O)N[C@H](C(N)=O)C(C)C)[C@@H](C)CC [compound 184] (H-DNPSLSIDLPFFLLRTLLELARTQSQRERAEQNAIIFASV-NH2; N-terminus assumed)	77.3%	96.5%		
CC[C@H](C)[C@H](NC(=O)[C@H](C)NC(=O)[C@H](CC(N)=O)NC(=O)[C@H](CCC(N)=O)NC(=O)[C@H](CCC(=O)O)NC(=O)[C@H](C)NC(=O)[C@H](CCCNC(=N)N)NC(=O)[C@H](CCC(=O)O)NC(=O)[C@H](CCCNC(=N)N)NC(=O)[C@H](CCC(N)=O)NC(=O)[C@H](CO)NC(=O)[C@H](CCC(N)=O)NC(=O)[C@@H](NC(=O)[C@H](CCCNC(=N)N)NC(=O)[C@H](C)NC(=O)[C@H](CC(C)C)NC(=O)[C@H](CCC(=O)O)NC(=O)[C@H](CC(C)C)NC(=O)[C@H](CC(C)C)NC(=O)[C@@H](NC(=O)[C@H](CCCNC(=N)N)NC(=O)[C@H](CC(C)C)NC(=O)[C@H](CC(C)C)NC(=O)[C@H](Cc1c[nH]cn1)NC(=O)[C@H](Cc1ccccc1)NC(=O)[C@@H]1CCCN1C(=O)[C@H](CC(C)C)NC(=O)[C@H](CC(=O)O)NC(=O)[C@@H](NC(=O)[C@H](CO)NC(=O)[C@H](CC(C)C)NC(=O)[C@H](CO)NC(=O)[C@@H]1CCCN1C(=O)[C@H](CC(N)=O)NC(=O)[C@@H](N)CC(=O)O)[C@@H](C)CC)[C@@H](C)O)[C@@H](C)O)C(=O)N[C@H](C(=O)N[C@@H](Cc1ccccc1)C(=O)N[C@@H](C)C(=O)N[C@@H](CO)C(=O)N[C@H](C(N)=O)C(C)C)[C@@H](C)CC [compound 185] (H-DNPSLSIDLPFHLLRTLLELARTQSQRERAEQNAIIFASV-NH2; N-terminus assumed)	95.8%	100%	358 nM	8.98 nM
CC[C@H](C)[C@H](N)C(=O)N[C@H](C(=O)N[C@@H](CC(C)C)C(=O)N[C@@H](CO)C(=O)N[C@@H](CC(C)C)C(=O)N[C@@H](CC(=O)O)C(=O)N[C@H](C(=O)N[C@H](C(=O)N[C@H](C(=O)NCC(=O)N[C@@H](CC(C)C)C(=O)N[C@@H](CC(C)C)C(=O)N[C@@H](CCC(N)=O)C(=O)N[C@H](C(=O)N[C@@H](CC(C)C)C(=O)N[C@@H](CC(C)C)C(=O)N[C@@H](CCC(=O)O)C(=O)N[C@@H](CCC(N)=O)C(=O)N[C@@H](C)C(=O)N[C@@H](CCCNC(=N)N)C(=O)N[C@@H](C)C(=O)N[C@@H](CCCNC(=N)N)C(=O)N[C@@H](C)C(=O)N[C@@H](C)C(=O)N[C@@H](CCCNC(=N)N)C(=O)N[C@@H](CCC(=O)O)C(=O)N[C@@H](CCC(N)=O)C(=O)N[C@@H](C)C(=O)N[C@H](C(=O)N[C@H](C(=O)N[C@@H](CC(N)=O)C(=O)N[C@@H](C)C(=O)N[C@@H](CCCNC(=N)N)C(=O)N[C@H](C(=O)N[C@@H](CC(C)C)C(=O)N[C@@H](C)C(=O)N[C@@H](CCCNC(=N)N)C(=O)N[C@H](C(N)=O)C(C)C)[C@@H](C)CC)[C@@H](C)O)[C@@H](C)O)[C@@H](C)CC)[C@@H](C)CC)C(C)C)C(C)C)C(C)C [compound 214] (H-IVLSLDVVIGLLQILLEQARARAAREQATTNARILARV-NH2; N-terminus assumed)	4%	60%		
CC[C@H](C)[C@H](NC(=O)[C@H](C)NC(=O)[C@H](CC(N)=O)NC(=O)[C@H](CCC(N)=O)NC(=O)[C@H](CCC(=O)O)NC(=O)[C@H](C)NC(=O)[C@H](CCCNC(=N)N)NC(=O)[C@H](CCC(=O)O)NC(=O)[C@H](CCCNC(=N)N)NC(=O)[C@H](CCC(N)=O)NC(=O)[C@H](CO)NC(=O)[C@H](CCC(N)=O)NC(=O)[C@@H](NC(=O)[C@H](CCCNC(=N)N)NC(=O)[C@H](C)NC(=O)[C@H](CC(C)C)NC(=O)[C@H](CCC(=O)O)NC(=O)[C@H](CC(C)C)NC(=O)[C@H](CC(C)C)NC(=O)[C@@H](NC(=O)[C@H](CCCNC(=N)N)NC(=O)[C@H](CC(C)C)NC(=O)[C@H](CC(C)C)NC(=O)[C@H](Cc1ccc(O)cc1)NC(=O)[C@H](Cc1ccc(O)cc1)NC(=O)[C@@H]1CCCN1C(=O)[C@H](CC(C)C)NC(=O)[C@H](CC(=O)O)NC(=O)[C@@H](NC(=O)[C@H](CO)NC(=O)[C@H](CC(C)C)NC(=O)[C@H](CO)NC(=O)[C@@H]1CCCN1C(=O)[C@H](CC(N)=O)NC(=O)[C@@H](N)CC(=O)O)[C@@H](C)CC)[C@@H](C)O)[C@@H](C)O)C(=O)N[C@H](C(=O)N[C@@H](Cc1ccccc1)C(=O)N[C@@H](C)C(=O)N[C@@H](CO)C(=O)N[C@H](C(N)=O)C(C)C)[C@@H](C)CC [compound 263] (H-DNPSLSIDLPYYLLRTLLELARTQSQRERAEQNAIIFASV-NH2; N-terminus assumed)	72%	93%		
CC[C@H](C)[C@H](N)C(=O)N[C@H](C(=O)N[C@@H](CC(C)C)C(=O)N[C@@H](CO)C(=O)N[C@@H](CC(C)C)C(=O)N[C@@H](CC(=O)O)C(=O)N[C@H](C(=O)N1CCC[C@H]1C(=O)N[C@H](C(=O)NCC(=O)N[C@@H](CC(C)C)C(=O)N[C@@H](CC(C)C)C(=O)N[C@@H](CCC(N)=O)C(=O)N[C@@H](CCCCN)C(=O)N[C@H](C(=O)N[C@H](C(=O)N[C@@H](CCC(=O)O)C(=O)N[C@H](C(=O)N[C@@H](CCC(=O)O)C(=O)N[C@@H](CCCCN)C(=O)N[C@@H](CCC(N)=O)C(=O)N[C@@H](CCC(=O)O)C(=O)N[C@@H](CCCCN)C(=O)N[C@@H](CCC(=O)O)C(=O)N[C@@H](CCCCN)C(=O)N[C@@H](CCC(N)=O)C(=O)N[C@@H](CCC(N)=O)C(=O)N[C@@H](C)C(=O)N[C@H](C(=O)N[C@H](C(=O)N[C@@H](CC(N)=O)C(=O)N[C@@H](C)C(=O)N[C@@H](CCCNC(=N)N)C(=O)N[C@H](C(=O)N[C@@H](CC(C)C)C(=O)N[C@@H](C)C(=O)N[C@@H](CCCNC(=N)N)C(=O)N[C@H](C(N)=O)C(C)C)[C@@H](C)CC)[C@@H](C)O)[C@@H](C)O)[C@@H](C)CC)[C@@H](C)CC)C(C)C)[C@@H](C)CC)C(C)C)C(C)C [compound 300] (H-IVLSLDVPIGLLQKVIEIEKQEKEKQQATTNARILARV-NH2; N-terminus assumed)	7.95%	100%		

From patent US6936585B2, “Corticotropin releasing factor 2 receptor agonists” (priority 2002, dated 2005)
